Like-named read-outs stand apart in the source and are kept apart here.
Tested on: acetaminophen-induced liver disorder
Experiment: Suppressive effect on acetaminophen-induced liver disorder in the rat (s-GOT, s-GPT)
Assay type: in vivo
Conditions: for inhibition at 102 mg/kg: Rattus norvegicus; for inhibition at 102 mg/kg / inhibition rate of s-GOT / inhibition rate of s-GPT: versus 5% gum arabic control; for s-GOT / s-GPT: male Wistar rats, blood 24 h later, mean ± S.E. (n=4-8)
Procedure: Male Wistar rats with a body weight of about 180 g were fasted for 24 hours and orally administered, through a cannula for oral administration, 87-349 mg of oxidized-type glutathione isopropyl ester (hereinafter also referred to as "GSSG isopropyl"), which is one of the compounds of the present invention, 102 mg of reduced-type glutathione isopropyl ester 1/2 H2 SO4.1/2H2 O (87 mg as reduced type glutathione isopropyl ester (hereinafter also referred to as "GSH isopropyl")) or 5% gum arabic solution as a control, respectively. 1 hour later, 400 mg/kg of acetaminophen, a compound which may induce disorders in the liver, was intra peritoneally administered. 24 hours later, the rats were anesthetized with pentobarbital and the blood was collected from the abdominal aorta, and s-GOT and s-GPT were measured to compare the hepatic disorder suppressing effect of GSSG isopropyl with that of GSH isopropyl.

[1] = 102 mg/kg [0.25 mmol/kg] oral 1 h before acetaminophen 400 mg/kg i.p.
[2] = 87 mg/kg [0.125 mmol/kg] oral 1 h before acetaminophen 400 mg/kg i.p.
[3] = 174 mg/kg [0.25 mmol/kg] oral 1 h before acetaminophen 400 mg/kg i.p.
[4] = 349 mg/kg [0.5 mmol/kg] oral 1 h before acetaminophen 400 mg/kg i.p.

Compound	elevation of s-GOT and s-GPT (102 mg/kg oral, acetaminophen-treated rats)	inhibition at 102 mg/kg (102 mg/kg oral, read-out: inhibition rate of s-GOT) [%]	inhibition at 102 mg/kg (102 mg/kg oral, read-out: inhibition rate of s-GPT) [%]	s-GOT [1] [IU/1]	s-GPT [1] [IU/1]	hepatic disorder suppressing effect compared with 102 mg/kg of GSH isopropyl sulfate (87 mg/kg oral, acetaminophen-treated rats)	inhibition rate of s-GOT (87 mg/kg oral)	inhibition rate of s-GPT (87 mg/kg oral)	inhibition rate of s-GOT (174 mg/kg oral)	inhibition rate of s-GPT (174 mg/kg oral)	inhibition rate of s-GOT (349 mg/kg oral)	inhibition rate of s-GPT (349 mg/kg oral)	elevation of s-GOT and s-GPT (87-349 mg/kg oral, acetaminophen-treated rats)	s-GOT [2] [IU/1]	s-GPT [2] [IU/1]	s-GOT [3] [IU/1]	s-GPT [3] [IU/1]	s-GOT [4] [IU/1]	s-GPT [4] [IU/1]
CC(C)OC(=O)CNC(=O)[C@H](CS)NC(=O)CC[C@H](N)C(=O)O.O=S(=O)(O)O [GSH isopropyl sulfate, γ-L-glutamyl-L-cysteinylglycine isopropyl ester sulfate, reference compound]	significantly suppresses	94.5	94.4	475 ± 156	253 ± 97														
γ-L-GLUTAMYL-L-CYSTEI[…] ESTER DISULFIDE [GSSG isopropyl]						almost equivalent	95.0	94.9	95.9	96.6	98.6	99.1	significantly suppressed dose-dependently	430 ± 236	231 ± 152	352 ± 104	154 ± 46	119 ± 11	39 ± 3

Reference: US5223488A, “Oxidized-type glutathione alkyl ester” (Senju Pharmaceutical Company, Ltd., priority 1990, dated 1993)
